According to publication PMC6332427, “Drug Discovery of Host CLK1 Inhibitors for Influenza Treatment” (Molecules, 2015):
Converted amounts (≈) assume the structure as drawn. “And” between values parts separate entries of the source, which are not always exact repeats. Equal entries are not always repeated. Where two headings read alike, the source gives them in different places.

Tests used:
recombinant human CLK1 = target: T1, recombinant human CLK1 (Homo sapiens, UniProt P49759); experiment: CLK1 inhibitory assay (Kinase-Glo luminescent kinase assay, MBP substrate); type: biochemical
T1 construct: The primer of human full length CLK1 gene was as follows; made in house; host or cells: Sf9 insect cells (baculovirus, pFastBac1)
Method: The optimal conditions were dependent on the largest change in luminescence when comparing kinase reaction wells with control wells.
The kinase assay in this study utilized appropriate concentration of recombinant purified protein CLK1 in the presence of MBP as the substrate, MgCl2, MnCl2, ATP in kinase buffer (10 mM Tris, 1 mM EGTA, 100 μM sodium orthovanadate, 10 μM p-nitrophenyl phosphate (PNP), pH7.4) in a reaction volume of 20 μL. The reaction system were incubated at 25 °C for appropriate time. The Kinase-Glo® Luminescent Kinase Assay Platform was used to measure kinase activity by quantitating the amount of ATP, the signals of which were recorded using PerkinElmer’s EnSpire Multilabel Plate Reader. All the above components were added to the plate by automatic dispenser (EDR-384S, BioTec, Tokyo, Japan). A series of parameters containing the amount of kinase (1.16–298 ng/mL), MBP (3.125–150 μg/mL), ATP (0.1–100 μM), Mg^2+ (0.01–100 mM), Mn^2+ (0.5–20 mM), the percentage of DMSO (0.03%–10%), reaction time and temperature were optimized respectively in order to get best performance. Z′ factor values was calculated as described.
The inhibition percentage of the compounds against CLK1 were calculated according to the formula: (1) inhibition%=[(RLUsample−RLUpositive)/(RLUnegative−RLUpositive)]×100% where the RLUsample, RLUpositive, RLUnegative are the measured RLU values with treatment of test compounds, the wells free of test compounds, and that of without kinase, respectively.

[1] = Cytotoxicity assay in MDCK cells (MTT, 72 h); settings: dog
MDCK cells [2] = experiment: Cytotoxicity assay in MDCK cells (MTT, 72 h); settings: MDCK cells; for CC0 (maximal non-cytotoxic concentration) / CC50 (50% cytotoxic concentration): 72 h, MTT; for CC0 (maximal non-cytotoxic concentration): more than 90% cells viable
[3] = test system: influenza virus A/PR/8/34 (H1N1); experiment: organism not typed; settings: MDCK
[4] = test system: influenza virus A/PR/8/34 (H1N1); experiment: in vitro; settings: for selectivity ratio at 24 h: MDCK, H1N1
[5] = test system: influenza virus A/PR/8/34 (H1N1); experiment: microbe, parasite or virus in culture; settings: read-out: EC50s in time-of-addition assays
MDCK cells [6] = settings: dog, 72 h
in vitro = settings: dog
CLK1 = settings: cited from earlier work
[7] = test system: influenza virus A/PR/8/34 (H1N1)
[8] = 24 h, read-out: Simultaneous Treatment Assay EC50
[9] = read-out: Post-Treatment Assay EC50
[10] = read-out: Pre-Treatment Assay EC50
[11] = Kinase-Glo assay, read-out: IC50 (converted)
[12] = Post-Treatment Assay SI (selective index, CC50/EC50), post-treatment
[13] = Pre-Treatment Assay SI (selective index, CC50/EC50), pre-treatment
[14] = Simultaneous Treatment Assay SI (selective index, CC50/EC50), simultaneous treatment
[15] = H1N1 (MOI 0.01) incubated with MDCK cells 2 h, then compound, 24 h, mean ± SD
[16] = H1N1 (MOI 0.01) pre-incubated with compound 2 h at 37 °C before addition to MDCK cells, 24 h, mean ± SD
[17] = compound added along with H1N1 (MOI 0.01) to MDCK cells, 24 h, mean ± SD

T1 sequence (P49759 whole entry): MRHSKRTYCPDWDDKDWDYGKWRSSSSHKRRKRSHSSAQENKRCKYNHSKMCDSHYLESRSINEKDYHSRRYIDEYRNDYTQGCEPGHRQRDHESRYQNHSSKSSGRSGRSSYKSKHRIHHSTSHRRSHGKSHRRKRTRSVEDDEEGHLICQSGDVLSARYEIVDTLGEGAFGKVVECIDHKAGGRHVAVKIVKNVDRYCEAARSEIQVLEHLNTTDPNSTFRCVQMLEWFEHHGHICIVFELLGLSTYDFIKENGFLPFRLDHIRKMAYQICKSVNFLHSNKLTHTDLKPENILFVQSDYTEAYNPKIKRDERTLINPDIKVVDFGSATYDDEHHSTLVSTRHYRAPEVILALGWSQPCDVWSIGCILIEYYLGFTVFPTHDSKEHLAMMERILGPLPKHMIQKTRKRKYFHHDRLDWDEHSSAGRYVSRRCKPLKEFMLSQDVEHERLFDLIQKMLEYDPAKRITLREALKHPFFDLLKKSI

Compound	IC50 (recombinant human CLK1; IC50, Kinase-Glo assay)	CC0 (maximal non-cytotoxic concentration) (MDCK cells [2])	EC50 [3, 8]	EC50 [3, 9]	EC50 [3, 10]	selectivity ratio at 24 h [4, 12]	selectivity ratio at 24 h [4, 13]	CC0 (maximal non-cytotoxic concentration) (MDCK cells [6])	CC50 at 72 h (in vitro)	other results
O=c1c(-c2ccc(O)cc2)coc2cc(O)cc(O)c12 [Genistein]	< 185 µM	30 µg/mL	> 30 µg/mL	> 30 µg/mL	> 30 µg/mL	–	–	–	–	CC50 at 72 h [1]: 75.6 µg/mL (≈ 280 µM)
O=c1c(O)c(-c2ccc(O)cc2)oc2cc(O)cc(O)c12 [J10610, Kaempferol]	–	30 µg/mL	12.3 ± 5.89 µg/mL (≈ 43.1 µM)	23.3 ± 1.08 µg/mL (≈ 81.4 µM)	5.16 ± 2.4 µg/mL (≈ 18 µM)	–	–	–	–	selectivity ratio ([4]; Post-Treatment Assay SI (selective index, CC50/EC50)): 2.94; selectivity ratio ([4]; Pre-Treatment Assay SI (selective index, CC50/EC50)): 13.3; selectivity ratio ([4]; Simultaneous Treatment Assay SI (selective index, CC50/EC50)): 5.55; IC50 (recombinant human CLK1; Figure 6, Kinase-Glo assay, read-out: IC50 (converted)): 6.01 µM; IC50 (recombinant human CLK1; [11]): < 175 µM; CC50 at 72 h ([1]; MDCK cells): 68.5 µg/mL (≈ 239 µM)
O=C(Oc1cc(O)c2c(c1)O[C@H](c1cc(O)c(O)c(O)c1)[C@@H](O)C2)c1cc(O)c(O)c(O)c1 [J10688, Clypearin]	–	–	1.2 ± 0.28 µg/mL (≈ 2.62 µM)	18.1 ± 3.02 µg/mL (≈ 39.4 µM)	0.75 ± 0.13 µg/mL (≈ 1.64 µM)	> 11.1	> 267	100 µg/mL	> 200 µg/mL	EC50 ([5]; unidentified influenza virus, H1N1|PR/8, MDCK): < 20 µg/mL; selectivity ratio at 24 h [4, 14]: > 167; IC50 (recombinant human CLK1; [11]): < 109 µM and 2.62 µM
C/C=C/C(=O)c1c(O)c2c(c3c(-c4ccccc4)cc(=O)oc13)OC(C)(C)C=C2 [J10857]	–	–	16.3 ± 2.29 µg/mL (≈ 41.9 µM)	14.7 ± 5.25 µg/mL (≈ 37.8 µM)	18.4 ± 13 µg/mL (≈ 47.4 µM)	5.3	4.22	30 µg/mL	77.7 µg/mL (≈ 200 µM)	selectivity ratio at 24 h [4, 14]: 4.78; IC50 (recombinant human CLK1; [11]): < 129 µM
Cc1c([N+](=O)[O-])c(O)c([N+](=O)[O-])c2oc(=O)c(C(=O)Nc3cccc(C(=O)O)c3)cc12 [J11534]	< 116 µM	30 µg/mL	> 30 µg/mL	> 30 µg/mL	> 30 µg/mL	–	–	–	–	CC50 at 72 h [1]: 175 µg/mL (≈ 408 µM)
O=C(O[C@@H]1O[C@@H]2COC(=O)c3cc(O)c(O)c(O)c3-c3c(cc(O)c(O)c3O)C(=O)O[C@H]([C@H]1O)[C@@H]2O)c1cc(O)c(O)c(O)c1 [J12098, Corilagin]	< 78.8 µM and 0.599 µM	–	2 ± 2.22 µg/mL (≈ 3.15 µM)	5.91 ± 1.44 µg/mL (≈ 9.32 µM)	3.99 ± 3.72 µg/mL (≈ 6.29 µM)	26	38.5	30 µg/mL	154 µg/mL (≈ 242 µM)	EC50 ([5]; MDCK): < 20 µg/mL; selectivity ratio at 24 h [4, 14]: 76.8
O=C(O[C@@H]1Cc2c(O)cc(O)cc2O[C@@H]1c1cc(O)c(O)c(O)c1)c1cc(O)c(O)c(O)c1 [J14080, Epigallocatechin gallate]	< 109 µM	30 µg/mL	14.9 ± 1.81 µg/mL (≈ 32.4 µM)	> 30 µg/mL	10.2 ± 6.22 µg/mL (≈ 22.2 µM)	–	–	–	–	CC50 at 72 h [1]: 71.1 µg/mL (≈ 155 µM)
COc1cc(/C=C/c2cc(O)cc(O)c2)ccc1O [J14528, Isorhapontigenin]	< 194 µM	–	> 30 µg/mL	> 30 µg/mL	5.98 ± 2.3 µg/mL (≈ 23.2 µM)	–	13.9	30 µg/mL	83.4 µg/mL (≈ 323 µM)	–
Oc1cc(O)cc(/C=C/c2ccccc2)c1 [J14848, Pinosylvin]	< 236 µM and 395 µM	–	5.28 ± 2.45 µg/mL (≈ 24.9 µM)	6.65 ± 4.3 µg/mL (≈ 31.3 µM)	7.54 ± 5.48 µg/mL (≈ 35.5 µM)	3.23	2.42	10 µg/mL	18.3 µg/mL (≈ 86 µM)	selectivity ratio at 24 h [4, 14]: 3.46; concentration above which toxic effects occur (MDCK cells [6]): above 10 μg/mL
O=c1cc(-c2ccc(O)c(O)c2)oc2cc(O)cc(O)c12 [J20725, Luteolin]	–	10 µg/mL	> 10 µg/mL	5.74 ± 0.54 µg/mL (≈ 20.1 µM)	> 10 µg/mL	4.33	–	–	–	IC50 (recombinant human CLK1; [11]): < 175 µM; CC50 at 72 h ([1]; MDCK cells): 24.9 µg/mL (≈ 86.9 µM); concentration above which toxic effects occur (MDCK cells [2]): above 10 μg/mL
O=c1cc(-c2ccccc2)oc2c(O)c(O)cc(O)c12 [J21548, Norwogonin]	< 185 µM	–	> 30 µg/mL	> 30 µg/mL	> 30 µg/mL	–	–	30 µg/mL	91.8 µg/mL (≈ 340 µM)	–
CCCOC(=O)c1cc(O)c(O)c(O)c1 [J25986, Propyl gallate]	–	30 µg/mL	12.9 ± 8.06 µg/mL (≈ 60.7 µM)	3.42 ± 0.2 µg/mL (≈ 16.1 µM)	15.9 ± 6.94 µg/mL (≈ 75.1 µM)	53.2	11.4	–	–	selectivity ratio at 24 h [4, 14]: 14.1; IC50 (recombinant human CLK1; [11]): < 236 µM; CC50 at 72 h ([1]; MDCK cells): 182 µg/mL (≈ 858 µM)
COC(=O)c1cc(O)c(O)c(O)c1 [Methyl gallate]	< 272 µM	–	> 30 µg/mL	> 30 µg/mL	> 30 µg/mL	–	–	30 µg/mL	–	CC50 at 72 h [1]: 69.5 µg/mL (≈ 377 µM)
c1csc(CNc2ncnc3ccc(-c4ccc5c(c4)OCO5)cc23)c1 [NCGC00010037]	–	–	–	–	–	–	–	–	–	IC50 (CLK1): 0.037 µM
NC(=O)c1ncn([C@@H]2O[C@H](CO)[C@@H](O)[C@H]2O)n1 [Ribavirin, reference compound]	–	–	10.3 ± 2.38 µg/mL (≈ 42.3 µM)	13.8 ± 3.47 µg/mL (≈ 56.4 µM)	4.36 ± 0.99 µg/mL (≈ 17.9 µM)	–	–	–	–	CC50 at 72 h [1]: > 200 µg/mL
CCN1/C(=C/C(C)=O)Sc2ccc(OC)cc21 [TG003, reference compound]	–	–	–	–	–	–	–	–	–	IC50 (CLK1): […]; Post-Treatment Assay EC50 [7, 15]: 3.56 ± 1.47 µg/mL; Pre-Treatment Assay EC50 [7, 16]: 5.09 ± 0.78 µg/mL; Simultaneous Treatment Assay EC50 [7, 17]: 15.75 ± 3.49 µg/mL
Chebulanin [J12133]	–	30 µg/mL	–	–	–	–	–	–	–	IC50 (recombinant human CLK1; Kinase-Glo assay): lower than 50 μg/mL; CC50 (50% cytotoxic concentration) (MDCK cells [2]): 90.27 µg/mL; Post-Treatment Assay EC50 [7, 15]: 21.11 ± 11.15 µg/mL; Pre-Treatment Assay EC50 [7, 16]: 15.29 ± 10.35 µg/mL; Simultaneous Treatment Assay EC50 [7, 17]: 9.84 ± 0.44 µg/mL; Post-Treatment Assay SI (selective index, CC50/EC50) ([7]; post-treatment, MDCK, H1N1): 4.28; Pre-Treatment Assay SI (selective index, CC50/EC50) ([7]; pre-treatment, MDCK, H1N1): 5.90; Simultaneous Treatment Assay SI (selective index, CC50/EC50) ([7]; simultaneous treatment, MDCK, H1N1): 9.17
Hispidulin [J20353]	–	30 µg/mL	–	–	–	–	–	–	–	IC50 (recombinant human CLK1; Kinase-Glo assay): lower than 50 μg/mL; CC50 (50% cytotoxic concentration) (MDCK cells [2]): 60.35 µg/mL; Post-Treatment Assay EC50 [7]: >30 µg/mL; Pre-Treatment Assay EC50 [7]: 18.89 ± 5.1 µg/mL; Simultaneous Treatment Assay EC50 [7]: 5.26 ± 2.48 µg/mL
